# Test system: K86415-001-R-J1-PDC complex spheroids, viability
# Assay: Anticancer human tumor K86415-001-R-J1-PDC patient-derived lung adenocarcinoma cell line growth inhibition [RAS]
# Conditions: curve of first compound; second compound 0.00316 µM
# Outline: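 Multi-cell-type spheroids: tumor cells plus HUVEC endothelial cells and mesenchymal stem cells. RAS-pathway inhibitors were combined with targeted agents, each dosed in half-log steps down from clinical Cmax, or from 10 microM when Cmax was unknown.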
# 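Further: spheroids exposed to agents for seven days before readout.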
row,Compound,IC50
1,CC1(O)CCCC1n1c(=O)c(C(F)F)cc2cnc(NC3CCN(S(C)(=O)=O)CC3)nc21 (stereo unspecified) + C=CC(=O)N1CCN(c2nc(OCC3CCCN3C)nc3c(F)c(-c4nc(N)cc(C)c4C(F)(F)F)c(Cl)cc23)C(C)C1,< 0.0316 µM
2,CCC(CC)c1cc(NC2CCC(N)C2)n2nccc2n1 (stereo unspecified) + C=CC(=O)N1CCN(c2nc(OCC3CCCN3C)nc3c(F)c(-c4nc(N)cc(C)c4C(F)(F)F)c(Cl)cc23)C(C)C1,< 0.0316 µM
3,CCN1CCN(Cc2ccc(Nc3ncc(F)c(-c4cc(F)c5nc(C)n(C(C)C)c5c4)n3)nc2)CC1 + C=CC(=O)N1CCN(c2nc(OCC3CCCN3C)nc3c(F)c(-c4nc(N)cc(C)c4C(F)(F)F)c(Cl)cc23)C(C)C1,< 0.00316 µM
4,Cc1nc(N2CCC3(CC2)COC(C)C3N)c(CO)nc1Sc1ccnc(N)c1Cl (stereo unspecified) + C=CC(=O)N1CCN(c2nc(OCC3CCCN3C)nc3c(F)c(-c4nc(N)cc(C)c4C(F)(F)F)c(Cl)cc23)C(C)C1,< 0.0316 µM
5,NC1c2ccccc2OC12CCN(c1cnc3c(N4CCCc5ncccc54)n[nH]c3n1)CC2 (stereo unspecified) + C=CC(=O)N1CCN(c2nc(OCC3CCCN3C)nc3c(F)c(-c4nc(N)cc(C)c4C(F)(F)F)c(Cl)cc23)C(C)C1,< 0.0316 µM

# Same assay, conditions: curve of first compound; second compound 0.01 µM
row,Compound,IC50
1,CC1(O)CCCC1n1c(=O)c(C(F)F)cc2cnc(NC3CCN(S(C)(=O)=O)CC3)nc21 (stereo unspecified) + C=CC(=O)N1CCN(c2nc(OCC3CCCN3C)nc3c(F)c(-c4nc(N)cc(C)c4C(F)(F)F)c(Cl)cc23)C(C)C1,< 0.0316 µM
2,CCC(CC)c1cc(NC2CCC(N)C2)n2nccc2n1 (stereo unspecified) + C=CC(=O)N1CCN(c2nc(OCC3CCCN3C)nc3c(F)c(-c4nc(N)cc(C)c4C(F)(F)F)c(Cl)cc23)C(C)C1,< 0.0316 µM
3,CCN1CCN(Cc2ccc(Nc3ncc(F)c(-c4cc(F)c5nc(C)n(C(C)C)c5c4)n3)nc2)CC1 + C=CC(=O)N1CCN(c2nc(OCC3CCCN3C)nc3c(F)c(-c4nc(N)cc(C)c4C(F)(F)F)c(Cl)cc23)C(C)C1,< 0.00316 µM
4,Cc1nc(N2CCC3(CC2)COC(C)C3N)c(CO)nc1Sc1ccnc(N)c1Cl (stereo unspecified) + C=CC(=O)N1CCN(c2nc(OCC3CCCN3C)nc3c(F)c(-c4nc(N)cc(C)c4C(F)(F)F)c(Cl)cc23)C(C)C1,< 0.0316 µM
5,NC1c2ccccc2OC12CCN(c1cnc3c(N4CCCc5ncccc54)n[nH]c3n1)CC2 (stereo unspecified) + C=CC(=O)N1CCN(c2nc(OCC3CCCN3C)nc3c(F)c(-c4nc(N)cc(C)c4C(F)(F)F)c(Cl)cc23)C(C)C1,< 0.0316 µM

# Same assay, conditions: curve of first compound; second compound 0.0316 µM
row,Compound,IC50
1,CC1(O)CCCC1n1c(=O)c(C(F)F)cc2cnc(NC3CCN(S(C)(=O)=O)CC3)nc21 (stereo unspecified) + C=CC(=O)N1CCN(c2nc(OCC3CCCN3C)nc3c(F)c(-c4nc(N)cc(C)c4C(F)(F)F)c(Cl)cc23)C(C)C1,< 0.0316 µM
2,CCC(CC)c1cc(NC2CCC(N)C2)n2nccc2n1 (stereo unspecified) + C=CC(=O)N1CCN(c2nc(OCC3CCCN3C)nc3c(F)c(-c4nc(N)cc(C)c4C(F)(F)F)c(Cl)cc23)C(C)C1,< 0.0316 µM
3,CCN1CCN(Cc2ccc(Nc3ncc(F)c(-c4cc(F)c5nc(C)n(C(C)C)c5c4)n3)nc2)CC1 + C=CC(=O)N1CCN(c2nc(OCC3CCCN3C)nc3c(F)c(-c4nc(N)cc(C)c4C(F)(F)F)c(Cl)cc23)C(C)C1,< 0.00316 µM
4,Cc1nc(N2CCC3(CC2)COC(C)C3N)c(CO)nc1Sc1ccnc(N)c1Cl (stereo unspecified) + C=CC(=O)N1CCN(c2nc(OCC3CCCN3C)nc3c(F)c(-c4nc(N)cc(C)c4C(F)(F)F)c(Cl)cc23)C(C)C1,< 0.0316 µM
5,NC1c2ccccc2OC12CCN(c1cnc3c(N4CCCc5ncccc54)n[nH]c3n1)CC2 (stereo unspecified) + C=CC(=O)N1CCN(c2nc(OCC3CCCN3C)nc3c(F)c(-c4nc(N)cc(C)c4C(F)(F)F)c(Cl)cc23)C(C)C1,< 0.0316 µM

# Same assay, conditions: curve of first compound; second compound 0.1 µM
row,Compound,IC50
1,CC1(O)CCCC1n1c(=O)c(C(F)F)cc2cnc(NC3CCN(S(C)(=O)=O)CC3)nc21 (stereo unspecified) + C=CC(=O)N1CCN(c2nc(OCC3CCCN3C)nc3c(F)c(-c4nc(N)cc(C)c4C(F)(F)F)c(Cl)cc23)C(C)C1,< 0.0316 µM
2,CCC(CC)c1cc(NC2CCC(N)C2)n2nccc2n1 (stereo unspecified) + C=CC(=O)N1CCN(c2nc(OCC3CCCN3C)nc3c(F)c(-c4nc(N)cc(C)c4C(F)(F)F)c(Cl)cc23)C(C)C1,< 0.0316 µM
3,CCN1CCN(Cc2ccc(Nc3ncc(F)c(-c4cc(F)c5nc(C)n(C(C)C)c5c4)n3)nc2)CC1 + C=CC(=O)N1CCN(c2nc(OCC3CCCN3C)nc3c(F)c(-c4nc(N)cc(C)c4C(F)(F)F)c(Cl)cc23)C(C)C1,< 0.00316 µM
4,Cc1nc(N2CCC3(CC2)COC(C)C3N)c(CO)nc1Sc1ccnc(N)c1Cl (stereo unspecified) + C=CC(=O)N1CCN(c2nc(OCC3CCCN3C)nc3c(F)c(-c4nc(N)cc(C)c4C(F)(F)F)c(Cl)cc23)C(C)C1,< 0.0316 µM
5,NC1c2ccccc2OC12CCN(c1cnc3c(N4CCCc5ncccc54)n[nH]c3n1)CC2 (stereo unspecified) + C=CC(=O)N1CCN(c2nc(OCC3CCCN3C)nc3c(F)c(-c4nc(N)cc(C)c4C(F)(F)F)c(Cl)cc23)C(C)C1,< 0.0316 µM

# Same assay, conditions: curve of first compound; second compound 0.316 µM
row,Compound,IC50
1,CC1(O)CCCC1n1c(=O)c(C(F)F)cc2cnc(NC3CCN(S(C)(=O)=O)CC3)nc21 (stereo unspecified) + C=CC(=O)N1CCN(c2nc(OCC3CCCN3C)nc3c(F)c(-c4nc(N)cc(C)c4C(F)(F)F)c(Cl)cc23)C(C)C1,< 0.0316 µM
2,CCC(CC)c1cc(NC2CCC(N)C2)n2nccc2n1 (stereo unspecified) + C=CC(=O)N1CCN(c2nc(OCC3CCCN3C)nc3c(F)c(-c4nc(N)cc(C)c4C(F)(F)F)c(Cl)cc23)C(C)C1,< 0.0316 µM
3,CCN1CCN(Cc2ccc(Nc3ncc(F)c(-c4cc(F)c5nc(C)n(C(C)C)c5c4)n3)nc2)CC1 + C=CC(=O)N1CCN(c2nc(OCC3CCCN3C)nc3c(F)c(-c4nc(N)cc(C)c4C(F)(F)F)c(Cl)cc23)C(C)C1,< 0.00316 µM
4,Cc1nc(N2CCC3(CC2)COC(C)C3N)c(CO)nc1Sc1ccnc(N)c1Cl (stereo unspecified) + C=CC(=O)N1CCN(c2nc(OCC3CCCN3C)nc3c(F)c(-c4nc(N)cc(C)c4C(F)(F)F)c(Cl)cc23)C(C)C1,< 0.0316 µM
5,NC1c2ccccc2OC12CCN(c1cnc3c(N4CCCc5ncccc54)n[nH]c3n1)CC2 (stereo unspecified) + C=CC(=O)N1CCN(c2nc(OCC3CCCN3C)nc3c(F)c(-c4nc(N)cc(C)c4C(F)(F)F)c(Cl)cc23)C(C)C1,< 0.0316 µM

# Same assay, conditions: curve of first compound; second compound 1 µM
row,Compound,IC50
1,CC1(O)CCCC1n1c(=O)c(C(F)F)cc2cnc(NC3CCN(S(C)(=O)=O)CC3)nc21 (stereo unspecified) + C=CC(=O)N1CCN(c2nc(OCC3CCCN3C)nc3c(F)c(-c4nc(N)cc(C)c4C(F)(F)F)c(Cl)cc23)C(C)C1,< 0.0316 µM
